Measurements: ChEMBL document CHEMBL2375353, “Efficient induction of apoptosis in HeLa cells by a novel cationic porphycene photosensitizer” (Eur J Med Chem, 2013)
Activity calls are given as the source filed them. The rule behind the calls is not given here.

Legend:
HeLa [1] = test: Induction of apoptosis in human HeLa cells assessed as volume reduction at 0.5 uM incubated for 18 hrs prior to red light irradiation measured after 3 hrs by neutral red staining; type: functional, cell-based
HeLa [2] = test: Induction of ROS generation in human HeLa cells assessed as cell survival at 0.5 uM incubated for 18 hrs prior to red light irradiation measured after 24 hrs by MTT assay; type: functional; conditions: light or radiation study, read-out: Activity
HeLa [3] = test: Induction of ROS generation in human HeLa cells assessed as cell survival at 0.5 uM incubated for 18 hrs followed by NaN3 addition 2 hrs prior to red light irradiation measured after 24 hrs by MTT assay; type: functional; conditions: light or radiation study, read-out: Activity
HeLa [4] = test: Induction of ROS generation in human HeLa cells assessed as singlet oxygen luminescence signal at 5 uM after 18 hrs; type: functional, cell-based
HeLa [5] = test: Induction of apoptosis in human HeLa cells assessed as trypsin-mediated cell detachment at 0.5 to 0.75 uM incubated for 18 hrs prior to red light irradiation by hemocytometer; type: functional, cell-based
HeLa [6] = test: Induction of apoptosis in human HeLa cells assessed as trypsin-mediated cell detachment incubated for 18 hrs prior to red light irradiation measured after 24 hrs by hemocytometer; type: functional, cell-based
HeLa [7] = test: Induction of apoptosis in human HeLa cells incubated for 18 hrs prior to red light irradiation measured after 24 hrs by trypan blue exclusion assay; type: functional, cell-based
HeLa [8] = test: Induction of apoptosis in human HeLa cells incubated for 18 hrs prior to red light irradiation measured after 3 hrs by trypan blue exclusion assay; type: functional, cell-based
HeLa [9] = test: Phototoxicity against human HeLa cells at 0.5 uM incubated for 18 hrs prior to red light irradiation measured after 3 to 24 hrs by trypan blue exclusion assay; type: functional, cell-based
HeLa [10] = test: Phototoxicity against human HeLa cells at 0.75 uM incubated for 18 hrs prior to red light irradiation measured after 3 to 24 hrs by trypan blue exclusion assay; type: functional, cell-based
HeLa [11] = test: Phototoxicity against human HeLa cells at 0.75 uM incubated for 18 hrs prior to 3.6 J/cm'2 red light irradiation by MTT assay; type: functional, cell-based
HeLa [12] = test: Phototoxicity against human HeLa cells assessed as cell viability at > 0.5 uM incubated for 18 hrs prior to 3.6 J/cm'2 red light irradiation by MTT assay; type: functional
HeLa [13] = test: Phototoxicity against human HeLa cells at 1 uM incubated for 18 hrs prior to 2.4 J/cm'2 red light irradiation by MTT assay; type: functional
HeLa [14] = test: Phototoxicity against human HeLa cells at 1 uM incubated for 18 hrs prior to 1.2 J/cm'2 red light irradiation by MTT assay; type: functional, cell-based
[15] = Cytotoxicity against human HeLa cells assessed as cell viability after 18 hrs by MTT assay in presence of 10 % FCS; type: cell-based; conditions: read-out: Activity
HeLa [16] = test: Darktoxicity against human HeLa cells at 1 uM after 18 hrs by MTT assay; type: cell-based
[17] = Cytotoxicity against human HeLa cells assessed as cell viability after 18 hrs by MTT assay in presence of 1 % FCS; type: cell-based; conditions: read-out: Activity
HeLa [18] = test: Darktoxicity against human HeLa cells at 0.75 uM after 18 hrs by MTT assay; type: cell-based
[19] = Darktoxicity against human HeLa cells assessed as cell survival at > 0.5 microM after 18 hrs by MTT assay; type: cell-based; conditions: read-out: Activity
HeLa [20] = test: Drug uptake in human HeLa cells assessed as localization to lysosome at 0.5 uM after 18 hrs by prior to UV irradiation by fluorescence microscopy; type: ADME, cell-based
HeLa [21] = test: Drug uptake in human HeLa cells at 0.75 uM after 18 hrs by fluorescence microscopy; type: ADME, cell-based
HeLa [22] = test: Drug uptake in human HeLa cells assessed as perinuclear localization at 0.5 uM incubated for 18 hrs prior to UV irradiation by fluorescence microscopy; type: ADME, cell-based
HeLa [23] = test: Ratio of drug uptake in human HeLa cells at 0.5 uM after 18 hrs to drug uptake in human HeLa cells at 0.5 uM after 1 hr; type: ADME, cell-based
HeLa [24] = test: Drug uptake in human HeLa cells at 0.5 uM after 18 hrs by flow cytometry; type: ADME, cell-based
HeLa [25] = test: Drug uptake in human HeLa cells at 0.5 uM by flow cytometry; type: ADME, cell-based; conditions: TDE = time-dependent effect
HeLa [26] = test: Induction of ROS generation in human HeLa cells assessed as singlet oxygen luminescence signal at 5 uM after 18 hrs in presence of sodium azide; type: functional, cell-based
HeLa [27] = test: Induction of apoptosis in human HeLa cells assessed as changes in microtubules and actin microfilament alteration at 0.75 to 0.5 uM after 18 hrs by immunostaining assay; type: cell-based
HeLa [28] = test: Induction of apoptosis in human HeLa cells assessed as microtubule alteration at 0.75 to 0.5 uM after 18 hrs by […]; type: cell-based
HeLa [29] = test: Induction of apoptosis in human HeLa cells assessed as cytochrome c relocation at 0.75 to 0.5 uM after 18 hrs by immunofluorescence method; type: cell-based
HeLa [30] = test: Induction of apoptosis in human HeLa cells at 0.75 to 0.5 uM after 18 hrs by Hoechst-33258 staining; type: cell-based
HeLa [31] = test: Induction of apoptosis in human HeLa cells at 0.75 to 0.5 uM after 18 hrs by neutral red staining; type: cell-based
HeLa [32] = test: Induction of apoptosis in human HeLa cells assessed as relocalization of proapoptotic Bax protein within mitochondria at 0.75 to 0.5 uM after 18 hrs by indirect immunofluorescence; type: cell-based

COCc1ccc(C2=Cc3nc2ccc2[nH]c(cc2-c2ccc(C[n+]4ccccc4)cc2)c2nc(ccc4[nH]c3cc4-c3ccc(C[n+]4ccccc4)cc3)C(c3ccc(C[n+]4ccccc4)cc3)=C2)cc1.[Br-].[Br-].[Br-]
Activity (HeLa [1]): Active | viability at 0.5 µM (HeLa [2]): 5.2% | viability at 0.5 µM (HeLa [3]): 72% | Activity (HeLa [4]): Active | Activity (HeLa [5]): Active | Activity (HeLa [6]): Dose-dependent effect | Activity (HeLa [7]): Active | Activity (HeLa [8]): Active | Activity (HeLa [9]): Active | Activity (HeLa [10]): Active | Activity (HeLa [11]): Active | Activity (HeLa [12]): <10% | Activity (HeLa [13]): >50% | Activity (HeLa [14]): Active | viability at 18 h [15]: 100% | Activity (HeLa [16]): Toxic | viability at 18 h [17]: 98.6% | Activity (HeLa [18]): Toxic | viability at 18 h [19]: > 90% | Drug uptake (HeLa [20]): Active | Drug uptake (HeLa [21]): Active | Drug uptake (HeLa [22]): Active | Ratio (HeLa [23]): 3 | Drug uptake (HeLa [24]): Active | Drug uptake (HeLa [25]): tde | Activity (HeLa [26]): inactive | Activity (HeLa [27]): Non-toxic | Activity (HeLa [28]): Non-toxic | Activity (HeLa [29]): Non-toxic | Activity (HeLa [30]): Non-toxic | Activity (HeLa [31]): Non-toxic | Activity (HeLa [32]): Non-toxic
